Entries after “also recorded” stand apart in the source; their conditions may differ.
Experiments:
focal cerebral ischemia = experiment: Focal cerebral ischemia (distal MCA cauterization with bilateral temporary CCA occlusion), infarct; format: in vivo, male Long-Evans rats; settings: for cross-sectional infarct area curve (in words): FIG. 1
Procedure: (§1) Focal cerebral ischemia was produced by cauterization of the right distal MCA (middle cerebral artery) with bilateral temporary common carotid artery occlusion in male Long-Evans rats for 90 minutes. All procedures performed on the animals were approved by the University Institutional Animal Care and Use Committee of the University of Pennsylvania. A total of 42 rats (weights: 230-340 g) obtained from Charles River were used in this study. The animals fasted overnight with free access to water prior to the surgical procedure.
(§2) Two hours prior to MCA occlusion, varying amounts (control, n=14; 5 mg/kg, n=7; 10 mg/kg, n=7; 20 mg/kg, n=7; and 40 mg/kg, n=7) of the compound, 3,4-dihydro-5-[4-(1-piperidinyl)-butoxy]-1(2H)-isoquinolinone ("DPQ") were dissolved in dimethyl sulfoxide (DMSO) using a sonicator. A volume of 1.28 ml/kg of the resulting solution was injected intraperitoneally into fourteen rats.
(§3) The rats were then anesthetized with halothane (4% for induction and 0.8%-1.2% for the surgical procedure) in a mixture of 70% nitrous oxide and 30% oxygen. The body temperature was monitored by a rectal probe and maintained at 37.5±0.5° C. with a heating blanket regulated by a homeothermic blanket control unit (Harvard Apparatus Limited, Kent, U.K.). A catheter (PE-50) was placed into the tail artery, and arterial pressure was continuously monitored and recorded on a Grass polygraph recorder (Model 7D, Grass Instruments, Quincy, Mass.). Samples for blood gas analysis (arterial pH, PaO2 and PaCO2) were also taken from the tail artery catheter and measured with a blood gas analyzer (ABL 30, Radiometer, Copenhagen, Denmark). Arterial blood samples were obtained 30 minutes after MCA occlusion.
The head of the animal was positioned in a stereotaxic frame, and a right parietal incision between the right lateral canthus and the external auditory meatus was made. Using a dental drill constantly cooled with saline, a 3 mm burr hole was prepared over the cortex supplied by the right MCA, 4 mm lateral to the sagittal suture and 5 mm caudal to the coronal suture. The dura mater and a thin inner bone layer were kept, care being taken to position the probe over a tissue area devoid of large blood vessels. The flow probe (tip diameter of 1 mm, fiber separation of 0.25 mm) was lowered to the bottom of the cranial burr hole using a micromanipulator. The probe was held stationary by a probe holder secured to the skull with dental cement. The microvascular blood flow in the right parietal cortex was continuously monitored with a laser Doppler flowmeter (FloLab, Moor, Devon, U.K., and Periflux 4001, Perimed, Stockholm, Sweden).
Focal cerebral ischemia was produced by cauterization of the distal portion of the right MCA with bilateral temporary common carotid artery (CCA) occlusion by the procedure of Chen et al., "A Model of Focal Ischemic Stroke in the Rat: Reproducible Extensive Cortical Infarction", Stroke 17:738-43 (1986) and/or Liu et al., "Polyethylene Glycol-conjugated Superoxide Dismutase and Catalase Reduce Ischemic Brain Injury", Am. J. Physiol. 256:H589-93 (1989), both of which are hereby incorporated by reference.
Specifically, bilateral CCA's were isolated, and loops made from polyethylene (PE-10) catheter were carefully passed around the CCA's for later remote occlusion. […]

[1] = Arterial blood gases, pH and MABP in focal cerebral ischemia rats; format: in vivo, male Long-Evans rats; settings: for MABP Ischemia: during occlusion; for MABP Steady State: just prior to occlusion
Procedure: as §1, §2, §3
A "steady state" MABP was taken following completion of the surgical reparation, just prior to occlusion; an "ischemia" MABP was taken as the average MABP during occlusion.

[2] = dose of acetanilid given to a person; cited from earlier work
endotoxic shock = settings: in vivo; cited from earlier work
[3] = tested on: human fibroblast cells (W138 or BJ); experiment: Extending proliferative capacity and lifespan of cells; format: cell-based
Procedure: At the time of subdivision, the media is aspirated, and the cells rinsed with phosphate buffer saline (PBS) and then trypsinized. The cells are counted with a Coulter counter and plated at a density of 10^5 cells per cm^2 in 6-well tissue culture plates in DMEM/199 medium supplemented with 10% bovine calf serum and varying amounts (0.10 μM, and 1 mM: from a 100× stock solution in DMEM/M199 medium) of a PARP inhibitor of Formula I as disclosed herein. This process is repeated every 7 days until the cell appear to stop dividing. The untreated (control) cells reach senescence and stop dividing after about 40 days in culture. […] The cells treated with 1 mM 3-AB will still divide after 60 days in culture.

[4] = tested on: heart ischemia and reperfusion; settings: cited from earlier work
colitis = settings: rat, in vivo; cited from earlier work
[5] = tested on: cell viability, glucose metabolism, and DNA synthesis; settings: cited from earlier work
[6] = target: T1, purified recombinant human PARP (Homo sapiens, UniProt P09874); experiment: PARP enzyme assay, [3H]NAD incorporation; format: biochemical; settings: 25° C., 15 minutes; PARP inhibition; read-out: Approximate IC50's
T1 construct: purchased Trevigen (Gaithersburg, Md.)
Procedure: The reaction was initiated by incubating the mixture at 25° C. After 15 minutes' incubation, the reaction was terminated by adding 500 microliters of ice cold 20% (w/v) trichloroacetic acid. The precipitate formed was transferred onto a glass fiber filter (Packard Unifilter-GF/B) and washed three times with ethanol. After the filter was dried, the radioactivity was determined by scintillation counting.

tumor cells = settings: cited from earlier work
PARP = settings: cited from earlier work
septic shock mortality = experiment: Septic shock assay (LPS plus galactosamine); format: in vivo, C57/BL male mice; settings: 60, 20, 6 and 2 mg/kg daily IP for three days; LPS plus galactosamine challenge
Procedure: Groups of 10 C57/BL male mice weighing 18 to 20 g were administered a test compound, 1-carboxynaphthalene-1-carboxamide at the doses of 60, 20, 6 and 2 mg/kg, daily, by intraperitoneal (IP) injection for three consecutive days. Each animal was first challenged with lipopolysaccharide (LPS, from E. coli, LD100 of […] IV) plus galactosamine (20 mg/animal IV). The first dose of test compound in a suitable vehicle was given 30 minutes after challenge, and the second and third doses were given 24 hours later on day 2 and day 3 respectively, with only the surviving animals receiving the second or third dose of the test compound. Mortality was recorded every 12 hours after challenge for the three-day testing period. 1-Carboxy-naphthalene-1-carboxamide provided a protection against mortality from septic shock of about 40%.

T1 sequence (P09874 whole entry): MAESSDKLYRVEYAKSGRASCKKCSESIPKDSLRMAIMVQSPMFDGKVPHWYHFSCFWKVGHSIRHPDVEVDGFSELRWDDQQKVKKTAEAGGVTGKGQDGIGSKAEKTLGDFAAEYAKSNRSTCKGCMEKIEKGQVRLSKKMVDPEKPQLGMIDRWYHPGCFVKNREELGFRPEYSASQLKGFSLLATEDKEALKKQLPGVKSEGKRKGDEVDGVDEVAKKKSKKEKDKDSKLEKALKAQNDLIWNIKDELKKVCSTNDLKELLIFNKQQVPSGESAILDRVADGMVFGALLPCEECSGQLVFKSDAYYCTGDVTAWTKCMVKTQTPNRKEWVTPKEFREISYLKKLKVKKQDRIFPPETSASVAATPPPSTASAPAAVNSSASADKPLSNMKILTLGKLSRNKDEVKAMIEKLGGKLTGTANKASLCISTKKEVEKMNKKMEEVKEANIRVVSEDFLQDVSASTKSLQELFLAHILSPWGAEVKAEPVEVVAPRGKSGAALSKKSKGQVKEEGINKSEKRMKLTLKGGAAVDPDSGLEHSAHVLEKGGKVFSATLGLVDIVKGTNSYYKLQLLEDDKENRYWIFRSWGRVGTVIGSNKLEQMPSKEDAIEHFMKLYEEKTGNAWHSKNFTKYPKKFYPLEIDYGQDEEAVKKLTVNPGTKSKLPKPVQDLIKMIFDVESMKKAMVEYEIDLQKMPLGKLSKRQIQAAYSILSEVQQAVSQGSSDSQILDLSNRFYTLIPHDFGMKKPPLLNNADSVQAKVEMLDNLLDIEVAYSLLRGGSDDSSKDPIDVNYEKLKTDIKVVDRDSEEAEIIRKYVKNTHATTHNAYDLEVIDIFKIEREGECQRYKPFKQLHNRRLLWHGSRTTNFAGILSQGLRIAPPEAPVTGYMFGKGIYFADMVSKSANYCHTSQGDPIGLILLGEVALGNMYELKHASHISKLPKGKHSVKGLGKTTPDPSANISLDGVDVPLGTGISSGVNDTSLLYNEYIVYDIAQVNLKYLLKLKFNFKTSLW

## O=C1NCCc2c(OCCCCN3CCCCC3)cccc21 [DPQ, 3,4-dihydro-5-[4-(1-piperidinyl)-butoxy]-1(2H)-isoquinolinone]
Focal cerebral ischemia; 5 mg/kg i.p.
  cross-sectional infarct area curve (in words): fell approximately halfway between the control and the 10 mg/kg curves
Focal cerebral ischemia; 20 mg/kg i.p.
  cross-sectional infarct area curve (in words): fell approximately halfway between the control and the 10 mg/kg curves
Focal cerebral ischemia; 40 mg/kg i.p.
  infarct volume versus control (in words): no significant difference between the control and the 40 mg/kg-treated group; also recorded: less neuroprotective
  cross-sectional infarct area curve (in words): close to the control
Focal cerebral ischemia; overall, in vivo administration
  reduction in infarct volume overall (in words): substantial reduction in infarct volume
[1]; 5 mg/kg-treated group (n = 7)
  PaCO2: 38.0 ± 2.8 mm Hg
  PaO2: 126 ± 20 mm Hg
  arterial pH: 7.36 ± 0.02
  MABP Steady State: 78 ± 5 mm Hg
[1]; 5 mg/kg-treated group (n = 7), ** p < 0.01 vs steady state
  MABP Ischemia: 91 mm Hg
[1]; 10 mg/kg-treated group (n = 7)
  PaCO2: 39.3 ± 5.2 mm Hg
  PaO2: 125 ± 16 mm Hg
  arterial pH: 7.34 ± 0.03
  MABP Steady State: 80 ± 9 mm Hg
[1]; 10 mg/kg-treated group (n = 7), * p < 0.05 vs steady state
  MABP Ischemia: 90 mm Hg
[1]; 20 mg/kg-treated group (n = 7)
  PaCO2: 41.3 ± 2.8 mm Hg
  PaO2: 122 ± 14 mm Hg
  arterial pH: 7.35 ± 0.23
  MABP Steady State: 79 ± 10 mm Hg
[1]; 20 mg/kg-treated group (n = 7), ** p < 0.01 vs steady state
  MABP Ischemia: 91 mm Hg
[1]; 40 mg/kg-treated group (n = 7)
  PaCO2: 39.5 ± 4.7 mm Hg
  PaO2: 137 ± 17 mm Hg
  arterial pH: 7.33 ± 0.24
  MABP Steady State: 78 ± 4 mm Hg
[1]; 40 mg/kg-treated group (n = 7), * p < 0.05 vs steady state
  MABP Ischemia: 88 mm Hg

## CC(=O)Nc1ccccc1 [acetanilid, acetanilide]
[2]
  plasma component / peak (in words): During the first hour, acetanilid is the principal plasma component

## NC(=O)c1cccnc1 [nicotinamide]
Endotoxic shock
  vascular failure in endotoxic shock (in words): protects against delayed, NO-mediated vascular failure in endotoxic shock

## NC(=O)c1cccc(N)c1 [3-aminobenzamide]
[3]; 10 μM
  effect on lifespan of cells (in words): little or no effect
[3]; 100 μM
  effect on lifespan of cells (in words): appears lengthen the lifespan of the cells
[3]; 1 mM
  effect on lifespan and proliferative capacity of cells (in words): dramatically increases the lifespan and proliferative capacity of the cells
[3]; 1 mM, untreated cells stop after about 40 days
  time in culture after which cells still divide: > 60 days
[4]; 10 mg/kg single injection, one minute before occlusion or reperfusion
  reduction in infarct size in the heart: 32-42%
colitis
  colitis outcome (in words): reduced the inflammatory response and restored the morphology and the energetic status of the distal colon
[5]
  effect on cell viability, glucose metabolism, and DNA synthesis (in words): shown to affect cell viability, glucose metabolism, and DNA synthesis

## NC(=O)c1ccccc1 [benzamide]
[5]
  effect on cell viability, glucose metabolism, and DNA synthesis (in words): shown to affect cell viability, glucose metabolism, and DNA synthesis

## Nc1ccc2c(c1)oc(=O)c1ccccc12 [PARP Inhibitor (line 8)]
[6]
  IC50: ~4 µM

## O=c1[nH]c2ccccc2c2ccccc12 [6(5H)-Phenanthridinone]
Tumor cells
  proliferation of tumor cells (in words): reduced proliferation of tumor cells
Tumor cells; co-treatment with an alkylating drug
  synergy with an alkylating drug (in words): a marked synergistic effect when tumor cells are co-treated with an alkylating drug
PARP
  PARP activity (in words): inhibition of PARP activity

## CC(=O)Nc1ccc(O)cc1 [acetaminophen, p-hydroxyacetanilid]
[2]
  plasma component / peak (in words): In the second hour, as the acetanilid level falls, the metabolite acetaminophen concentration reaches a peak

## Oc1cccc2c(O)nccc12 [1,5-dihydroxyisoquinoline]
[4]; 1 mg/kg single injection
  reduction in infarct size: 38-48%

## 1-carboxynaphthalene-1-carboxamide
Septic shock mortality
  protection against mortality from septic shock: about 40%

— patent publication US6121278A, “Di-n-heterocyclic compounds, methods, and compositions for inhibiting parp activity” (Guilford Pharmaceuticals, Inc., priority 1998, dated 2000)
